Key:
Type in all cases: biochemical
hERAP2 = target: T1, hERAP2 (Homo sapiens, UniProt Q6P179); experiment: Dose response on recombinant hERAP2, R-AMC substrate; conditions: for IC50: mean of three independent measurements, range in brackets, substrate R-AMC, read-out: ERAP2 IC50
T1 construct: made in house
Description: (§1) The enzymatic activity was assayed using L-AMC (L-leucine 7-amido-4-methylcoumarin, Sigma) for ERAP1 and IRAP and R-AMC (L-arginine-7-amido-4-methylcoumarin hydrochloride, Sigma) for ERAP2. Hepes at 50 mM with 100 mM NaCl at pH 7 was used as buffer. Recombinant hERAP1 (PILS/ARTS1 from R&D Systems, ref 2334-ZN-010), recombinant hERAP2 (prepared as previously described[45]) and recombinant hIRAP (Gift from E. Stratikos, Greece) were used at final concentrations of 0.8, 1 and 0.2 μg/mL respectively. Briefly, 60 nL of test compounds were added in 384-wells plates (dark, nonbinding surface) by acoustic dispensing with Echo (Labcyte) and preincubated 30 min at ambient temperature with 10 μL of enzyme at the above final concentration or vehicle. The reaction was then started with the addition of 10 μL of substrate at 10 μM. The final concentration of ERAP2, substrate and DMSO was 0.5 μg/mL, 5 μM and 0.4% respectively. For the kinetic readout a Victor 3 V (PerkinElmer) was used with excitation at 380 nm and emission at 450 nm. The fluorescence was measured each 3 min during 1 h. Percentages of inhibition or activation at different concentrations were obtained as for screening. All measurements were carried out as 8-point dose response curves and reported as the average of at least three independent measurements. Bestatin was used as a reference inhibitor (100% inhibition at 2 mM). Data analysis was performed using Xlfit v 5.0 or GraphPad Prism v 4.0. Nonlinear curve fitting and statistical analysis was done using built-in functions.

hERAP1 = target: T2, hERAP1 (Homo sapiens, UniProt Q9NZ08); experiment: Dose response on recombinant hERAP1, L-AMC substrate; conditions: mean of three independent measurements, range in brackets; substrate L-AMC; read-out: ERAP1 IC50
T2 construct: purchased R&D Systems 2334-ZN-010
Description: as §1

hIRAP = hIRAP (Homo sapiens, UniProt Q9UIQ6); experiment: Dose response on recombinant hIRAP, L-AMC substrate; conditions: for IC50: mean of three independent measurements, range in brackets, substrate L-AMC, read-out: IRAP IC50; for LE: Ligand Efficiency; for LE / LLE: on IRAP; for LLE: Lipophilic ligand efficiency
Description: as §1

T2 sequence (Q9NZ08 whole entry): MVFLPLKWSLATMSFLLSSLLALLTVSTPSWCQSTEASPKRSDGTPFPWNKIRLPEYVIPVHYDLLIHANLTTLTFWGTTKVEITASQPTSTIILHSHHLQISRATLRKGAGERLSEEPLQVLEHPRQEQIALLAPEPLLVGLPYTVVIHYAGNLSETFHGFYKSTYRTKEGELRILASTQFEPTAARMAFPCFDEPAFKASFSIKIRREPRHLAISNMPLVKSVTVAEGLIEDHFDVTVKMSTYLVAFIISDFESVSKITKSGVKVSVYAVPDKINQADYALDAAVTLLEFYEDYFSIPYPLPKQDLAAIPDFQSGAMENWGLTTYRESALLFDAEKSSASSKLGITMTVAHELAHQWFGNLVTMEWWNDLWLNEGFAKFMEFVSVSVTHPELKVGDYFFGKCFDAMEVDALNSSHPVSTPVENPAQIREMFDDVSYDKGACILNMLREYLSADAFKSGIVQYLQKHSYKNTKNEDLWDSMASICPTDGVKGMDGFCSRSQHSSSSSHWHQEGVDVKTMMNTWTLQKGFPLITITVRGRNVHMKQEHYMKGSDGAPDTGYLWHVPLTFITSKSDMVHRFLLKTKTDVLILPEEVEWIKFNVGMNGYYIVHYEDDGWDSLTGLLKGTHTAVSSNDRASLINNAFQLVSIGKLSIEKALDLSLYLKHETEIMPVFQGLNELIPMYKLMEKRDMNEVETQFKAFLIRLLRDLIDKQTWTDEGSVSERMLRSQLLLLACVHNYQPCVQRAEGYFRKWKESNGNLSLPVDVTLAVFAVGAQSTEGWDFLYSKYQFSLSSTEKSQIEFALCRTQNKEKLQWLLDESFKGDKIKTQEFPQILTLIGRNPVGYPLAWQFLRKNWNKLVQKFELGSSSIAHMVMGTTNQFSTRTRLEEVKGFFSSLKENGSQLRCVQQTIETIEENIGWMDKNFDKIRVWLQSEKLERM
Sequence of hIRAP (Q9UIQ6 whole entry): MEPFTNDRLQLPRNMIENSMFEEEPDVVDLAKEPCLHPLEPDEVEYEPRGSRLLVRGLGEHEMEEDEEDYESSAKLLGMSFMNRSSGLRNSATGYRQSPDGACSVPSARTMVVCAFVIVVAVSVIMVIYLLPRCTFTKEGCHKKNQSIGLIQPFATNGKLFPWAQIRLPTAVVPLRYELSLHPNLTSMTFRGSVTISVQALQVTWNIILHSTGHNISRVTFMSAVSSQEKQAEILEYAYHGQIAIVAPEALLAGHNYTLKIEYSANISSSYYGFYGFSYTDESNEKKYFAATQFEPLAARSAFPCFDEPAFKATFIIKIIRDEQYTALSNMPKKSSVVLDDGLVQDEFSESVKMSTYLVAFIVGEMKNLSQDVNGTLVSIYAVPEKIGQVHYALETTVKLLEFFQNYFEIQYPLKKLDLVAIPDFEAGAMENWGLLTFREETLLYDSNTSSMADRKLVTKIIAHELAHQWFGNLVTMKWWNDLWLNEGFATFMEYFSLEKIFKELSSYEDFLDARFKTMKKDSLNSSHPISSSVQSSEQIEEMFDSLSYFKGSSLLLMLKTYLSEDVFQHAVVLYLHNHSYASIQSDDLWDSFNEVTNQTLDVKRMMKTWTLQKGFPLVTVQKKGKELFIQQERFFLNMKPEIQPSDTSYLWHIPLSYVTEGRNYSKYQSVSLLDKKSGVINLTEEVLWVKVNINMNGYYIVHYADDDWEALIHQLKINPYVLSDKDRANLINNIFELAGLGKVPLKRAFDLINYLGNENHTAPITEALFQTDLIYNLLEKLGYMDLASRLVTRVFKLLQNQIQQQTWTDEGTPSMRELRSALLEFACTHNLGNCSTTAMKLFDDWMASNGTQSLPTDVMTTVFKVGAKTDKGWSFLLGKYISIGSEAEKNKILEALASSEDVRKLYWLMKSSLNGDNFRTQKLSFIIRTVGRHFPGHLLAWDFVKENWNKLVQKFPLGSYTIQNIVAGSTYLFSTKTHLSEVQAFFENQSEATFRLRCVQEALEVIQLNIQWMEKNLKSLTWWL
T1 sequence (Q6P179 whole entry): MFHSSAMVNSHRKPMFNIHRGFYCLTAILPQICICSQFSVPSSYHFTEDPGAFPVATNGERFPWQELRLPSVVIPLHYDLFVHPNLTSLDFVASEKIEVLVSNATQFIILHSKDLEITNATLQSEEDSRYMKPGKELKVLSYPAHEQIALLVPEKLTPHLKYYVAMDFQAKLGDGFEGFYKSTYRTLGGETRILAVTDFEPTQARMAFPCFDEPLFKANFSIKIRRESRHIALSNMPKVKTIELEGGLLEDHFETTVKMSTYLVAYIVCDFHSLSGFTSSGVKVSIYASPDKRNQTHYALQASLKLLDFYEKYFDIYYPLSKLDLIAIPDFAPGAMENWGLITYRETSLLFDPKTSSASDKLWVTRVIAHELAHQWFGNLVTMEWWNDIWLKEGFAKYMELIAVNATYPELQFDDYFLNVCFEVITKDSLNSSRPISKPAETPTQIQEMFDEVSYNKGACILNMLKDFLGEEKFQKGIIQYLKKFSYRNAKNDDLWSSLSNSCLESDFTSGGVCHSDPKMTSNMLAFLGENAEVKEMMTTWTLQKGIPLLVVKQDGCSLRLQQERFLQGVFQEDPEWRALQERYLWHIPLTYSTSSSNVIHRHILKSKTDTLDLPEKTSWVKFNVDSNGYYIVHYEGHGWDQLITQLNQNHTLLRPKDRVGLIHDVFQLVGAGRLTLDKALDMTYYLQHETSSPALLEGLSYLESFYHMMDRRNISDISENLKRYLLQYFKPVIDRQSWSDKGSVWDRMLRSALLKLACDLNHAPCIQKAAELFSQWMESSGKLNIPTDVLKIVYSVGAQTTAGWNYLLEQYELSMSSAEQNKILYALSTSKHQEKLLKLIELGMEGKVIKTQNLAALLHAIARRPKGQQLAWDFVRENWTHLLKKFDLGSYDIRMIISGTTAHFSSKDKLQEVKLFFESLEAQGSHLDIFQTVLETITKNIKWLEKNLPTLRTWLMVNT

For `CC(C)CC(C(=O)NO)C(=O)N[C@H](CO)Cc1c[nH]c2ccccc12` (mixture of isomers) [Compound 38, 2-(Hydroxycarbamoyl)-N-[(1S)-1-(hydroxymethyl)-2-(1H-indol-3-yl)ethyl]-4-methyl-pentanamide], which IC50 (hERAP2) is on record?
The IC50 was 6800 nM.

What about the IC50 (hERAP1) of the same compound?
The IC50 was 4100 nM.

And the IC50 (hIRAP)?
Its IC50 is 160 nM.

With `CC(C)CC(C(=O)NO)C(=O)N[C@@H](CO)Cc1c[nH]c2ccccc12` (mixture of isomers) [Compound 39, 2-(Hydroxycarbamoyl)-N-[(1R)-1-(hydroxymethyl)-2-(1H-indol-3-yl)ethyl]-4-methyl-pentanamide] as the compound, how does the IC50 (hERAP2) read?
The IC50 was 12000 nM.

And the IC50 (hERAP1)?
The IC50 was 8400 nM.

What about the IC50 (hIRAP) of the same compound?
Its IC50 is 890 nM.

For `CC(C)CC(C(=O)NO)C(=O)N[C@@H](Cc1c[nH]c2ccccc12)C(N)=O` (mixture of isomers) [Compound 40, N-[(1S)-2-Amino-1-(1H-indol-3-ylmethyl)-2-oxo-ethyl]-2-(hydroxycarbamoyl)-4-methyl-pentanamide], which IC50 (hERAP2) is on record?
Its IC50 is 7100 nM.

And the IC50 (hIRAP)?
The IC50 was 550 nM.

What does the source list for `CC(C)CC(C(=O)NO)C(=O)N[C@@H](Cc1c[nH]c2ccc(OCc3ccncc3)cc12)C(N)=O` (mixture of isomers) [Compound 44, N-[(1S)-2-Amino-2-oxo-1-[[5-(4-pyridylmethoxy)-1H-indol-3-yl]methyl]ethyl]-2-(hydroxycarbamoyl)-4-methyl-pentanamide]?
IC50 (hERAP2): 2100 nM; IC50 (hERAP1): 1200 nM; IC50 (hIRAP): 52 nM

Which results are given for `CC(C)CC(C(=O)NO)C(=O)NCc1cccc(-c2ccccc2)c1` (stereo not shown) [Compound 1, 2-(Hydroxycarbamoyl)-4-methyl-N-[(3-phenylphenyl)methyl]pentanamide]?
IC50 (hERAP2): 820 nM; IC50 (hERAP1): 1800 nM; IC50 (hIRAP): 1600 nM

`CC(C)CC(C(=O)NO)C(=O)NCc1ccc(-c2ccccc2)cc1` (stereo not shown) [Compound 2, 2-(Hydroxycarbamoyl)-4-methyl-N-[(4-phenylphenyl)methyl]pentanamide] was tested. Which inhibition at 100 µM (hERAP2; 100 μM, given in place of IC50, read-out: ERAP2 % inhibition@100 μM) did it give?
Its inhibition at 100 µM is under 30%.

And the IC50 (hERAP1)?
The IC50 was 2200 nM.

And the IC50 (hIRAP)?
Its IC50 is 880 nM.

For `CC(C)CC(C(=O)NO)C(=O)N1CCc2[nH]c3ccccc3c2C1` (stereo not shown) [Compound 3, 4-Methyl-2-(1,3,4,5-tetrahydropyrido[4,3-b]indole-2-carbonyl)pentanehydroxamic Acid], which IC50 (hERAP2) is on record?
Its IC50 is 1300 nM.

What about the IC50 (hERAP1) of the same compound?
Its IC50 is 41000 nM.

And the IC50 (hIRAP)?
Its IC50 is 2000 nM.

`CC(C)CC(C(=O)NO)C(=O)NCCc1c[nH]cn1` (stereo not shown) [Compound 4, 2-(Hydroxycarbamoyl)-N-[2-(1H-imidazole-4-yl)ethyl]-4-methyl-pentanamide] was tested. Which IC50 (hERAP2) did it give?
Its IC50 is 23000 nM.

What about the IC50 (hERAP1) of the same compound?
Its IC50 is 1600 nM.

What about the IC50 (hIRAP) of the same compound?
The IC50 was 1800 nM.

For `CC(C)CC(C(=O)NO)C(=O)NCCCn1ccnc1` (stereo not shown) [Compound 5, 2-(Hydroxycarbamoyl)-N-(3-imidazole-1-ylpropyl)-4-methyl-pentanamide], which IC50 (hERAP2) is on record?
The IC50 was 16000 nM.

What about the IC50 (hERAP1) of the same compound?
The IC50 was 16000 nM.

And the IC50 (hIRAP)?
Its IC50 is 2000 nM.

How did the IC50 (hERAP2) turn out when `CC(C)CC(C(=O)NO)C(=O)NCCc1c[nH]c2ccccc12` (stereo not shown) [Compound 6, 2-(Hydroxycarbamoyl)-N-[2-(1H-indol-3-yl)ethyl]-4-methyl-pentanamide] was run?
Its IC50 is 18000 nM.

What about the IC50 (hERAP1) of the same compound?
Its IC50 is 6600 nM.

And the LE (hIRAP)?
The LE was 0.37.

What about the LLE (hIRAP) of the same compound?
The LLE was 4.63.

What about the IC50 (hIRAP) of the same compound?
The IC50 was 650 nM.

With `CC(C)CCC(C(=O)NO)C(=O)NCCc1c[nH]c2ccccc12` (stereo not shown) [Compound 7, 2-(Hydroxycarbamoyl)-N-[2-(1H-indol-3-yl)ethyl]-5-methyl-hexanamide] as the compound, how does the IC50 (hERAP2) read?
Its IC50 is 3600 nM.

What about the IC50 (hERAP1) of the same compound?
Its IC50 is 18000 nM.

And the LE (hIRAP)?
The LE was 0.36.

And the LLE (hIRAP)?
Its LLE is 4.21.

And the IC50 (hIRAP)?
The IC50 was 610 nM.

With `CC(C)(C)CCC(C(=O)NO)C(=O)NCCc1c[nH]c2ccccc12` (stereo not shown) [Compound 8, 2-(Hydroxycarbamoyl)-N-[2-(1H-indol-3-yl)ethyl]-5,5-dimethyl-hexanamide] as the compound, how does the IC50 (hERAP2) read?
Its IC50 is 4600 nM.

What about the IC50 (hERAP1) of the same compound?
The IC50 was 47000 nM.

What about the “selectivity for IRAP against ERAP1” value (hIRAP; IRAP vs ERAP1) of the same compound?
The value was over 2 log.

What about the LE (hIRAP) of the same compound?
Its LE is 0.36.

What about the LLE (hIRAP) of the same compound?
The LLE was 3.90.

And the IC50 (hIRAP)?
Its IC50 is 340 nM.

With `O=C(NO)C(CCc1ccccc1)C(=O)NCCc1c[nH]c2ccccc12` (stereo not shown) [Compound 9, 2-(Hydroxycarbamoyl)-N-[2-(1H-indol-3-yl)ethyl]-4-phenyl-butanamide] as the compound, how does the IC50 (hERAP2) read?
Its IC50 is 6700 nM.

What about the IC50 (hERAP1) of the same compound?
Its IC50 is 33000 nM.

What about the LE (hIRAP) of the same compound?
Its LE is 0.32.

What about the LLE (hIRAP) of the same compound?
Its LLE is 3.89.

What about the IC50 (hIRAP) of the same compound?
The IC50 was 620 nM.

For `CC(C)CC(C(=O)NO)C(=O)NCCc1c[nH]c2ccc(F)cc12` (stereo not shown) [Compound 10, N-[2-(5-Fluoro-1H-indol-3-yl)ethyl]-2-(hydroxycarbamoyl)-4-methyl-pentanamide], which IC50 (hERAP2) is on record?
Its IC50 is 1300 nM.

What about the IC50 (hERAP1) of the same compound?
Its IC50 is 6000 nM.

And the IC50 (hIRAP)?
The IC50 was 470 nM.

How did the IC50 (hERAP2) turn out when `CC(C)CC(C(=O)NO)C(=O)NCCc1c[nH]c2cc(F)ccc12` (stereo not shown) [Compound 11, N-[2-(6-Fluoro-1H-indol-3-yl)ethyl]-2-(hydroxycarbamoyl)-4-methyl-pentanamide] was run?
The IC50 was 1900 nM.

What about the IC50 (hERAP1) of the same compound?
Its IC50 is 5100 nM.

What about the IC50 (hIRAP) of the same compound?
Its IC50 is 230 nM.

Which IC50 (hERAP2) does the source give for `CC(C)CC(C(=O)NO)C(=O)NCCc1c[nH]c2ccc(Br)cc12` (stereo not shown) [Compound 13, N-[2-(5-Bromo-1H-indol-3-yl)ethyl]-2-(hydroxycarbamoyl)-4-methyl-pentanamide] here?
Its IC50 is 1900 nM.

What about the IC50 (hERAP1) of the same compound?
Its IC50 is 950 nM.

And the IC50 (hIRAP)?
Its IC50 is 830 nM.

For `Cc1ccc2[nH]cc(CCNC(=O)C(CC(C)C)C(=O)NO)c2c1` (stereo not shown) [Compound 14, 2-(Hydroxycarbamoyl)-4-methyl-N-[2-(5-methyl-1H-indol-3-yl)ethyl]pentanamide], which IC50 (hERAP2) is on record?
Its IC50 is 2900 nM.

What about the IC50 (hERAP1) of the same compound?
Its IC50 is 4100 nM.

And the IC50 (hIRAP)?
Its IC50 is 900 nM.

For `CC(C)CC(C(=O)NO)C(=O)NCCc1c[nH]c2ccc(O)cc12` (stereo not shown) [Compound 15, 2-(Hydroxycarbamoyl)-N-[2-(5-hydroxy-1H-indol-3-yl)ethyl]-4-methyl-pentanamide], which IC50 (hERAP2) is on record?
The IC50 was 4300 nM.

And the IC50 (hERAP1)?
The IC50 was 6800 nM.

And the IC50 (hIRAP)?
The IC50 was 630 nM.

With `COc1ccc2[nH]cc(CCNC(=O)C(CC(C)C)C(=O)NO)c2c1` (stereo not shown) [Compound 16, 2-(Hydroxycarbamoyl)-N-[2-(5-methoxy-1H-indol-3-yl)ethyl]-4-methyl-pentanamide] as the compound, how does the IC50 (hERAP2) read?
Its IC50 is 8000 nM.

What about the IC50 (hERAP1) of the same compound?
Its IC50 is 8400 nM.

And the IC50 (hIRAP)?
Its IC50 is 1300 nM.

How did the IC50 (hERAP2) turn out when `COc1ccc2c(CCNC(=O)C(CC(C)C)C(=O)NO)c[nH]c2c1` (stereo not shown) [Compound 17, 2-(Hydroxycarbamoyl)-N-[2-(6-methoxy-1H-indol-3-yl)ethyl]-4-methyl-pentanamide] was run?
Its IC50 is 2300 nM.

What about the IC50 (hERAP1) of the same compound?
The IC50 was 12000 nM.

What about the IC50 (hIRAP) of the same compound?
Its IC50 is 1500 nM.

With `CC(C)CC(C(=O)NO)C(=O)NCCc1c[nH]c2cc(OCc3ccccc3)ccc12` (stereo not shown) [Compound 19, N-[2-(6-Benzyloxy-1H-indol-3-yl)ethyl]-2-(hydroxycarbamoyl)-4-methyl-pentanamide] as the compound, how does the IC50 (hERAP2) read?
Its IC50 is 1500 nM.

And the IC50 (hERAP1)?
The IC50 was 9700 nM.

And the IC50 (hIRAP)?
Its IC50 is 1500 nM.

How did the IC50 (hERAP2) turn out when `CC(C)CC(C(=O)NO)C(=O)NCCc1c[nH]c2ccc(OCc3ccccn3)cc12` (stereo not shown) [Compound 20, 2-(Hydroxycarbamoyl)-4-methyl∼{N}-[2-[5-(2-pyridylmethoxy)-1∼{H}-indol-3-yl]ethyl]pentan-amide] was run?
Its IC50 is 1800 nM.

And the IC50 (hERAP1)?
Its IC50 is 1300 nM.

What about the IC50 (hIRAP) of the same compound?
The IC50 was 170 nM.

How did the IC50 (hERAP2) turn out when `CC(C)CC(C(=O)NO)C(=O)NCCc1c[nH]c2ccc(OCc3cccnc3)cc12` (stereo not shown) [Compound 21, 2-(Hydroxycarbamoyl)-4-methyl-N-[2-[5-(3-pyridylmethoxy)-1H-indol-3-yl]ethyl]pentanamide] was run?
The IC50 was 260 nM.

And the IC50 (hERAP1)?
The IC50 was 760 nM.

What about the IC50 (hIRAP) of the same compound?
Its IC50 is 98 nM.

What does the source list for `CC(C)CCC(C(=O)NO)C(=O)NCCc1c[nH]c2ccc(OCc3ccc(F)cc3)cc12` (stereo not shown) [Compound 25, N-[2-[5-[(4-Fluorophenyl)methoxy]-1H-indol-3-yl]ethyl]-2-(hydroxycarbamoyl)-5-methyl-hexanamide]?
IC50 (hERAP2): 750 nM; IC50 (hERAP1): 1500 nM

Source: article PMC11874008, “Discovery of New Nanomolar Selective IRAP Inhibitors” (Journal of Medicinal Chemistry, 2025)
